Columns and labels:
ATA2 = target: T1, ATA2 (Homo sapiens, UniProt Q96QD8); test: D-[3H]-serine transport in HRPE cells transfected with transporter cDNA; format: cell-based; conditions: D-[3H]-serine 5 μM
T1 construct: expressed in transfected cells; host or cells: HRPE cells
T1 sequence (Q96QD8 1-506): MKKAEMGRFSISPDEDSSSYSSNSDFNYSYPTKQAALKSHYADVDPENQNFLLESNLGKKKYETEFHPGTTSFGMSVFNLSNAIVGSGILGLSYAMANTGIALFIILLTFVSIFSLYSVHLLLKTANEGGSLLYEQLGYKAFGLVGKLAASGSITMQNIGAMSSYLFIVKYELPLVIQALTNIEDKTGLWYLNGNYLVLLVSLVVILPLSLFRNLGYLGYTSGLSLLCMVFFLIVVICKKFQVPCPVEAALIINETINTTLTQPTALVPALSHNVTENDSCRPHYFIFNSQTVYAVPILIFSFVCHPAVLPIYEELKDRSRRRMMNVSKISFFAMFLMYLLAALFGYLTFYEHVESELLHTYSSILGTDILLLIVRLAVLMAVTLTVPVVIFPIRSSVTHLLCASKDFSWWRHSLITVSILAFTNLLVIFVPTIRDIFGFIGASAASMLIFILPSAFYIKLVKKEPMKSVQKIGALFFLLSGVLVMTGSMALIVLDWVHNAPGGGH
Protocol: (§1) Transport of D-[^3H]-serine (5 μM) was measured in HRPE cells transfected with cDNA of each transporter.
(§2) The present inventors evaluated the function of 10 different amino acid transporter clones with respect to transport of D-serine in heterologous expression systems (FIG. 11). All of these transporters are expressed in the intestinal tract. The list of the transporters tested include three energy-independent, heterodimeric facilitative transporters (L1, L2, and b^0,+), three subtypes of the Na^+-coupled system A (ATA1, ATA2, and ATA3), two subtypes of the Na^+- and H^+-coupled system N (SN1 and SN2), the Na^+-coupled system ATB^0, and the Na^+- and Cl^−-coupled system ATB^0,+. […] The ability to transport D-serine was the highest for the Na^+- and Cl^−-coupled transporter ATB^0,+. ATB^0,+ belongs to the gene family of neurotransmitter transporters whose transport function is energized by multiple driving forces, namely a Na^+ gradient, a Cl^− gradient, and membrane potential. […] Based on the energetics of these two transport systems, ATB^0,+ is expected to play the leading role in this process.

SN1 = target: T2, SN1 (Homo sapiens, UniProt Q99624); test: as above; format: cell-based; conditions: D-[3H]-serine 5 μM
T2 construct: expressed in transfected cells; host or cells: HRPE cells
T2 sequence (Q99624 whole entry, species assumed): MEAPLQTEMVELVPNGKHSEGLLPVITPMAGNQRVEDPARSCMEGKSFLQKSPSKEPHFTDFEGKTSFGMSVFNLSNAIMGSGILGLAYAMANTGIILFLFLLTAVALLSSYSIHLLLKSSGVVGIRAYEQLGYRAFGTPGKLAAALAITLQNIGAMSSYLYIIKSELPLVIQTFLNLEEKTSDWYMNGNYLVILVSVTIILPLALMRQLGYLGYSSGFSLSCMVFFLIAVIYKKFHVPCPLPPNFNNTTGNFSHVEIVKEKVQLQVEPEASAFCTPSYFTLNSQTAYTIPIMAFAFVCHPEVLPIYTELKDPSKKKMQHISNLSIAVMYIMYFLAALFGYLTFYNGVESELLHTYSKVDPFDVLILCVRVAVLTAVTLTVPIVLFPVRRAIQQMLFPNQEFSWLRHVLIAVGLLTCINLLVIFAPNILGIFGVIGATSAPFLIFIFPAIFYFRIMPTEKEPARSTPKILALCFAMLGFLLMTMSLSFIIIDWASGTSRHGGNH
Protocol: as §1, §2

SN2 = target: T3, SN2 (Homo sapiens, UniProt Q8WUX1); test: as above; format: cell-based; conditions: D-[3H]-serine 5 μM
T3 construct: expressed in transfected cells; host or cells: HRPE cells
T3 sequence (Q8WUX1 whole entry, species assumed): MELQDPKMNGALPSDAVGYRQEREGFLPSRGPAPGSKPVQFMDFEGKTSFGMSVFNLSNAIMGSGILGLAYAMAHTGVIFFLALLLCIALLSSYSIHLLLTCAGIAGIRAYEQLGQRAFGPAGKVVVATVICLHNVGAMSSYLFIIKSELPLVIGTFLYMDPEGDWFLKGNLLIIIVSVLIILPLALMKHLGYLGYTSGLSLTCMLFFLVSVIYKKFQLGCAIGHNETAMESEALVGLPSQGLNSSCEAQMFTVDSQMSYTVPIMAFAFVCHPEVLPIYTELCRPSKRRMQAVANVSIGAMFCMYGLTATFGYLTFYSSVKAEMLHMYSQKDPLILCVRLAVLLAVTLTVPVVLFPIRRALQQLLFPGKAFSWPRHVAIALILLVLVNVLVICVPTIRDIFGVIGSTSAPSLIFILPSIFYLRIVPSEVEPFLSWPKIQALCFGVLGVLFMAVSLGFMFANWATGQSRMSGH
Protocol: as §1, §2

b^0,+ (b^0,+AT/4F2hc) = target: T4, b^0,+ (b^0,+AT/4F2hc) (Mus musculus, UniProt Q9QXA6); test: as above; format: cell-based; conditions: D-[3H]-serine 5 μM
T4 construct: expressed in transfected cells; host or cells: HRPE cells
T4 sequence (Q9QXA6 1-487): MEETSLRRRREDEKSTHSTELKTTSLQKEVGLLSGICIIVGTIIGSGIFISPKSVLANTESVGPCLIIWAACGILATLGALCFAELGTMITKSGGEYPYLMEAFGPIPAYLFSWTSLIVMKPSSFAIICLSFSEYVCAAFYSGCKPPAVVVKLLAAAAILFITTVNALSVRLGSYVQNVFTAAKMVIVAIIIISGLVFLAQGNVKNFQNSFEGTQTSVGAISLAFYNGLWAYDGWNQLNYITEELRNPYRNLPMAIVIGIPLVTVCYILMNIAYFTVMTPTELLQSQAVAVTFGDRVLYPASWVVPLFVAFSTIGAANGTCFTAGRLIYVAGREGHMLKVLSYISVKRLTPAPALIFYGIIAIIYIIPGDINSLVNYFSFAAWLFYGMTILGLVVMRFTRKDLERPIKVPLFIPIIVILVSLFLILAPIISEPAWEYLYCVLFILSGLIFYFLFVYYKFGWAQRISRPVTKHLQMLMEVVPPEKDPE
Protocol: as §1, §2

b^0,+AT/rBAT = target: T5, b^0,+AT/rBAT (Mus musculus, UniProt Q9QXA6); test: as above; format: cell-based; conditions: D-[3H]-serine 5 μM
T5 construct: expressed in transfected cells; host or cells: HRPE cells
T5 sequence (Q9QXA6 1-487): T4 sequence (Q9QXA6 1-487)
Protocol: as §1, §2

mouse ATB^0,+ = target: T6, mouse ATB^0,+ (Mus musculus, UniProt Q9JMA9); conditions: D-amino acid 1 mM; NaCl pH 7.5
T6 sequence (Q9JMA9 1-638): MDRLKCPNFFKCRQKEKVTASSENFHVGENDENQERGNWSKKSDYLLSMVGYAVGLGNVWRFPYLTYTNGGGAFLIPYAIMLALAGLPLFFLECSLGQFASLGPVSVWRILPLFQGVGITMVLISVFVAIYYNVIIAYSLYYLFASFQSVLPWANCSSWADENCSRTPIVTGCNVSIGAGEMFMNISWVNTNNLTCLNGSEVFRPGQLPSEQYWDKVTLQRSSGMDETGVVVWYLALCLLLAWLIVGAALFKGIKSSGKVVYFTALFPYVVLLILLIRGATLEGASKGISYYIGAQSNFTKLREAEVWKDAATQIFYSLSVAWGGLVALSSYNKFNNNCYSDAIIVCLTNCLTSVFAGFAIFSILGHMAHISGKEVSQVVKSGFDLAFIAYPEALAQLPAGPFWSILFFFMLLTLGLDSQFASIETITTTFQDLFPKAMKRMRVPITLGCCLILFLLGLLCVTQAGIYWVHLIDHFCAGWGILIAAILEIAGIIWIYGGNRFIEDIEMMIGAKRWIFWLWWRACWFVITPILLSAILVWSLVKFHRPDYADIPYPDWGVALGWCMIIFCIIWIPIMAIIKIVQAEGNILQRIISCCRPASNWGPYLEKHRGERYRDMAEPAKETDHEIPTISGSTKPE

ATB^0 = target: T7, ATB^0 (Homo sapiens, UniProt Q15758); test: D-[3H]-serine transport in HRPE cells transfected with transporter cDNA; format: cell-based; set-up: expressed in transfected cells; host or cells: HRPE cells; conditions: D-[3H]-serine 5 μM
T7 sequence (Q15758 1-541): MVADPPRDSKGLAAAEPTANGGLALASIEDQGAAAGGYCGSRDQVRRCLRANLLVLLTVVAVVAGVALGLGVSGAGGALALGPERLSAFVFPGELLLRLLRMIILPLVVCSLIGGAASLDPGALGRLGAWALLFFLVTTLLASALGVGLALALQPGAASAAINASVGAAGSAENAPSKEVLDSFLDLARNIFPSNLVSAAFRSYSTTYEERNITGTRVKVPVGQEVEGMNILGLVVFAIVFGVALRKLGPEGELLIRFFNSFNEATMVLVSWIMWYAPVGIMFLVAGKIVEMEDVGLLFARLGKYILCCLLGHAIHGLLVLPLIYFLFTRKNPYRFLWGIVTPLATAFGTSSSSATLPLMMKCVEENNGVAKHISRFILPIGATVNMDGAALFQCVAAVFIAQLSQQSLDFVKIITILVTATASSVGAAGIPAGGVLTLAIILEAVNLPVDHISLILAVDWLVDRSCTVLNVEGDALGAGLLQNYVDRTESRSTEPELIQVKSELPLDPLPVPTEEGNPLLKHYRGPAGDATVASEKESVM
Protocol: as §1, §2

For `N[C@H](CO)C(=O)O` [D-Serine, D-serine], the D-serine transport (ATA2) was “showed D-serine transport activity”, the D-serine transport (SN1) was “did not transport D-serine” and the D-serine transport (SN2) was “did not transport D-serine”. The D-serine transport (b^0,+ (b^0,+AT/4F2hc)) was “significant ability to transport”, the D-serine transport (b^0,+AT/rBAT) was “did not exhibit detectable D-serine transport activity” and the “Current in X. laevis oocytes (nA), D-isomer” value (mouse ATB^0,+) was 267 ± 23 nA. For the same compound, the D-serine transport (ATB^0) was “able to transport D-serine to a marked extent”.
